Assay results published in the supplement of paper PMC10307832.

Key:
Assay in all cases: relative viability (nuclei count vs DMSO), 5 days (fraction); higher = more cells survive
[1] = compound: CC(C)C[C@@H](C(=O)N[C@H](C(=O)OC1CCCC1)c1ccccc1)[C@H](O)C(=O)NO [Tosedostat] + Cc1nc(NC(=O)N2CCC[C@H]2C(N)=O)sc1-c1ccnc(C(C)(C)C(F)(F)F)c1 [Alpelisib] (partner 2 µM)
Method in brief: (§1)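 Lung cancer cell lines were seeded in 1536-well plates and dosed by pin tool the next day, with either a single drug or a fixed anchor-drug dose combined with five library-drug doses (not always all listed) spaced in √10 steps. Five days later, one step fixed the cells and stained their nuclei (final 0.05% Triton X-100, 1% formaldehyde, 1 ug/ml Hoechst), and nuclei were counted on 4× images. Relative viability is the nuclei count in treated wells divided by the count in vehicle wells, and each value is the median of duplicate plates.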

[2] = compound: CC(C)C[C@@H](C(=O)N[C@H](C(=O)OC1CCCC1)c1ccccc1)[C@H](O)C(=O)NO [Tosedostat] + O=C(c1cc(Cc2n[nH]c(=O)c3ccccc23)ccc1F)N1CCN(C(=O)C2CC2)CC1 [Olaparib] (partner 8 µM)
Method in brief: as §1

[3] = compound: CC1=NN=C(O1)C2=NN=C(C=C2)N3CCC(CC3)OC4=C(C=CC(=C4)F)Cl + C[C@]1(O)C[C@@H](c2nc(-c3ccc4ccc(-c5ccccc5)nc4c3)c3c(N)nccn32)C1 [Linsitinib] (partner 1 µM)
Method in brief: as §1

[4] = compound: CC1=NN=C(O1)C2=NN=C(C=C2)N3CCC(CC3)OC4=C(C=CC(=C4)F)Cl + CC(C)C[C@H](NC(=O)[C@H](Cc1ccccc1)NC(=O)c1cnccn1)B(O)O [Bortezomib] (partner 0.002 µM)
Method in brief: as §1

Row | Cell Line | relative viability ([1]; first compound 0.02 µM) | relative viability ([1]; first compound 0.06325 µM) | relative viability ([1]; first compound 0.2 µM) | relative viability ([1]; first compound 0.6325 µM) | relative viability ([1]; first compound 2 µM) | relative viability ([2]; first compound 0.02 µM) | relative viability ([2]; first compound 0.06325 µM) | relative viability ([2]; first compound 0.2 µM) | relative viability ([2]; first compound 0.6325 µM) | relative viability ([2]; first compound 2 µM) | relative viability ([3]; first compound 0.8 µM) | relative viability ([3]; first compound 2.53 µM) | relative viability ([3]; first compound 8 µM) | relative viability ([4]; first compound 0.8 µM) | relative viability ([4]; first compound 2.53 µM) | relative viability ([4]; first compound 8 µM) | relative viability ([3]; first compound 0.253 µM) | relative viability ([4]; first compound 0.253 µM)
1 | NCI-H596 | 0.48 | 0.51 | 0.483 | 0.619 | 0.552 | 0.66 | 0.662 | 0.776 | 0.598 | 0.49 | 0.953 | 1.01 | 0.933 | 0.85 | 1.01 | 0.713 |  | 
2 | SK-LU-1 | 1.19 | 0.981 | 0.772 | 0.842 | 0.491 | 0.467 | 0.45 | 0.335 | 0.391 | 0.367 | 0.852 | 1.02 | 0.589 | 0.86 | 1.12 | 1.02 | 1.03 | 1.08
3 | NCI-H650 | 1 | 1.15 | 1.14 | 0.97 | 0.683 | 0.368 | 0.362 | 0.381 | 0.271 | 0.219 | 0.766 | 0.773 | 0.786 | 0.546 | 0.716 | 0.555 | 0.981 | 0.787
4 | LU99A | 0.633 | 0.445 | 0.501 | 0.486 | 0.477 | 0.278 | 0.216 | 0.211 | 0.171 | 0.19 | 0.5 | 0.498 | 0.466 | 1 | 1.06 | 0.953 | 0.459 | 1.01
5 | NCI-H520 | 0.805 | 0.807 | 0.929 | 1.12 | 0.946 | 0.402 | 0.362 | 0.293 | 0.301 | 0.304 | 0.793 | 0.93 | 0.755 | 0.5 | 0.518 | 0.542 | 0.929 | 0.378
6 | NCI-H661 | 0.736 | 0.627 | 0.428 | 0.594 | 0.531 | 0.814 | 0.723 | 0.75 | 0.72 | 0.724 | 0.531 | 0.62 | 0.469 | 0.539 | 0.801 | 0.669 | 0.566 | 0.695
7 | PC-3 [JPC-3] | 1.03 | 1.03 | 1.06 | 0.924 | 0.727 | 1.11 | 1.11 | 1 | 0.921 | 0.747 | 0.869 | 0.869 | 0.844 | 0.614 | 0.726 | 0.666 | 0.789 | 0.519
8 | RERF-LC-KJ | 0.677 | 0.955 | 0.777 | 0.742 | 0.57 | 0.903 | 0.999 | 0.829 | 0.757 | 0.747 | 0.568 | 0.6 | 0.632 | 0.9 | 0.929 | 0.969 | 0.523 | 0.776
9 | NCI-H1915 | 1.1 | 1.05 | 1.04 | 1.07 | 0.907 | 0.281 | 0.234 | 0.244 | 0.203 | 0.236 | 0.51 | 0.45 | 0.376 | 0.31 | 0.456 | 0.323 | 0.582 | 0.4
10 | NCI-H1299 | 1.13 | 1.02 | 1.03 | 1.03 | 0.906 | 1.04 | 0.947 | 0.954 | 0.864 | 0.835 | 0.802 | 0.807 | 0.856 | 0.911 | 0.858 | 0.807 | 0.896 | 0.935
11 | H3255 | 0.666 | 0.642 | 0.589 | 0.568 | 0.663 | 0.596 | 0.532 | 0.545 | 0.525 | 0.497 | 0.719 | 0.718 | 0.716 | 0.569 | 0.478 | 0.526 | 0.697 | 0.465
12 | 201T | 0.967 | 1.08 | 1.07 | 1.21 | 1.15 | 0.824 | 0.913 | 0.874 | 0.896 | 0.862 | 0.596 | 0.634 | 0.565 | 0.569 | 0.592 | 0.552 | 0.569 | 0.484
13 | NCI-H2405 | 0.78 | 0.804 | 0.829 | 0.787 | 0.76 | 0.972 | 0.902 | 0.856 | 0.777 | 0.697 | 0.784 | 0.851 | 0.731 | 0.415 | 0.47 | 0.453 | 0.859 | 0.468
14 | HOP-62 | 0.92 | 1.01 | 0.697 | 0.984 | 0.744 | 0.638 | 0.346 | 0.321 | 0.245 | 0.363 |  | 0.771 | 0.443 |  | 0.764 | 0.419 | 0.677 | 0.577
15 | CAL-12T | 1.28 | 1.14 | 1.3 | 0.988 | 0.872 | 0.769 | 0.658 | 0.588 | 0.59 | 0.549 | 0.78 | 0.754 | 0.869 | 0.867 | 0.86 | 0.696 | 0.953 | 1.01
16 | NCI-H727 | 0.665 | 0.569 | 0.472 | 0.41 | 0.364 | 0.677 | 0.492 | 0.679 | 0.51 | 0.451 | 0.251 | 0.327 | 0.251 | 0.702 | 1 | 0.696 | 0.189 | 0.528
17 | NCI-H1993 | 0.61 | 0.688 | 0.843 | 0.561 | 0.588 | 1.13 | 1.04 | 0.943 | 0.736 | 0.769 | 0.745 | 0.647 | 0.693 | 0.901 | 0.925 | 0.966 | 0.679 | 0.922
18 | NCI-H2228 | 0.971 | 0.748 | 0.743 | 0.677 | 0.661 | 0.735 | 0.56 | 0.518 | 0.598 | 0.272 | 0.808 | 0.481 | 0.547 | 0.804 | 1.27 | 0.772 | 0.673 | 0.725
